Test: Evaluation of oxidation stability (QH residual rate after storage, QH ratio by HPLC)
Type: physicochemical
Method: The weight ratio of reduced coenzyme Q10 to total coenzyme Q10 (namely, reduced coenzyme Q10/(oxidized coenzyme Q10+reduced coenzyme Q10)) is defined as “QH ratio”. The QH ratio was determined by the following HPLC analysis. For the evaluation of oxidation stability, a rate of the change in the QH ratio at the end of the evaluation from that at the beginning of the evaluation was defined as “QH residual rate”, and the QH residual rate determined by the following expression was used as a measure of oxidation stability.
QH residual rate (%)=100×QH ratio at the end of the evaluation/QH ratio at the beginning of the evaluation […]
In a glass vial (volume 33 ml), 0.1 g of the QH Form I crystal was placed. […] The glass vial was sealed, and stored under a temperature of 40° C. and a relative humidity of 75% for 2 weeks, after which the QH residual rate was determined.
In a glass vial, 0.2 g of the QH Form I crystal was placed. The glass vial was opened, and stored under a temperature of 40° C. and a relative humidity of 11% for 2 weeks, after which the QH residual rate was determined.
In a glass vial (volume 33 ml), 0.1 g of the QH Form I crystal was placed. […] The glass vial was sealed, and stored under a temperature of 25° C. and a relative humidity of 60% for 4 weeks, after which the QH residual rate was determined. […]

Work on `COc1c(O)c(C)c(C/C=C(\C)CC/C=C(\C)CC/C=C(\C)CC/C=C(\C)CC/C=C(\C)CC/C=C(\C)CC/C=C(\C)CC/C=C(\C)CC/C=C(\C)CCC=C(C)C)c(O)c1OC` [Comparative Example 1, reduced coenzyme Q10] yielded a QH residual rate (0.2 g QH Form I crystal without water, opened glass vial, 40° C., relative humidity 11%, 2 weeks) of 34.9%.
`COc1c(O)c(C)c(C/C=C(\C)CC/C=C(\C)CC/C=C(\C)CC/C=C(\C)CC/C=C(\C)CC/C=C(\C)CC/C=C(\C)CC/C=C(\C)CC/C=C(\C)CCC=C(C)C)c(O)c1OC` [Comparative Example 2, reduced coenzyme Q10] showed a QH residual rate (0.1 g QH Form I crystal, with aqueous solution of Table 3 or without (comparative), sealed glass vial, 25° C., relative humidity 60%, 4 weeks) of 33.3%.
